Values of other authors in patent US10434129B2, “Composition to enhance HDL cholesterol and to decrease intima-media thickening in animals and humans and a method for its preparation” (ARJUNA NATURAL LTD, priority 2003, dated 2019).

Experiments:
[1] = tested on: Human umbilical vein endothelial cells (HUVEC); details: HUVEC incubated with ox-LDL
[2] = tested on: rat vascular smooth muscle cells (VSMC)

O=C(O[C@@H]1O[C@@H]2COC(=O)c3cc(O)c(O)c(O)c3-c3c(cc(O)c(O)c3O)C(=O)O[C@H]([C@H]1O)[C@@H]2O)c1cc(O)c(O)c(O)c1 [corilagin]
Malondialdehyde (MDA) in the culture media [1]: reduce MDA
adhesion of HUVEC to monocytes ([1]; then monocytes): prevented HUVEC from adhering to monocytes
VSMC proliferation induced by ox-LDL [2]: inhibited VSMC proliferation
